Assay results from PubChem BioAssay AID1996.
Converted amounts (≈) assume the structure as drawn.

conditions: buffer; pH 7.4; 200.0 µM

SMILES | solubility kinetic [µg/mL]
Cc1cccnc1NC(=O)CNC(=O)c1ccccc1 | > 40.4
O=C(CC(=O)Nc1cccc(F)c1)Nc1cccc(F)c1 | 9.4 (≈ 32.4 µM)
O=C1CN(C(=O)COC(=O)c2c(F)cccc2Cl)c2ccccc2N1 | 50 (≈ 138 µM)
COc1ccc(N2C(=O)CC(SCc3ccc(Cl)cc3)C2=O)cc1 (stereo not given) | 0.9 (≈ 2.49 µM)
O=C(Nc1ccc(NC(=O)c2ccccc2F)cc1)c1ccccc1F | < 0.4
CCC/C(O)=C1\C(=O)CC(C)(C)CC1=Nc1ccc(OC)cc1 | 41.6 (≈ 132 µM)
COP(=O)(OC)C(Nc1ccccc1)c1ccccc1 (stereo not given) | > 43.7
O=C(COC(=O)Cc1ccc(Cl)cc1)Nc1ccccc1F | 20.8 (≈ 64.6 µM)
Cc1cc(C(=O)OCC(=O)Nc2nccs2)c2ccccc2n1 | 6.8 (≈ 20.8 µM)
CC1CN(S(=O)(=O)c2cc(C(=O)N(C)Cc3cccs3)ccc2Cl)CC(C)O1 (stereo not given) | 64.6 (≈ 146 µM)
O=C(NCCc1ccc(Cl)cc1)c1ccc(Br)s1 | 1.2 (≈ 3.48 µM)
Cn1c(SCC(=O)Nc2cccnc2Cl)nc2ccccc21 | 37.9 (≈ 114 µM)
COCC(=O)Nc1ccc2c(c1)OCO2 | 27.7 (≈ 132 µM)
CCOC(=O)N1CCN(CC(=O)c2ccc(O)cc2O)CC1 | > 46.3
O=C(Nc1ccncc1)c1cc2ccccc2cc1O | 5.6 (≈ 21.2 µM)
Cc1ccc(C)c(Nc2c([N+](=O)[O-])c(=O)oc3ccccc23)c1 | 2.4 (≈ 7.73 µM)
CCOc1ccccc1NC(=O)N1CCCC1C(=O)NCc1ccco1 (stereo not given) | 48.2 (≈ 135 µM)
Cn1c(N)c(C(=O)COC(=O)c2cc3ccccc3cc2O)c(=O)n(C)c1=O | 3.6 (≈ 9.39 µM)
COc1ccc(/C(N)=N/O)c(OC)c1 | > 29.4
COC(=O)c1ccccc1CC1SC(N)=NC1=O (stereo not given) | > 39.6

SMILES | solubility kinetic [µg/mL]
O=C(NC1CCCCC1)Oc1ccccc1 | 18.3 (≈ 83.5 µM)
CCCCNC(=O)N1CCCN(c2ccc(C#N)cn2)CC1 | > 45.2
FC(F)(F)c1ccnc(NCc2ccco2)n1 | 9.2 (≈ 37.8 µM)
Cn1c(N)c(C(=O)COC(=O)Cc2ccc(Cl)c(Cl)c2)c(=O)n(C)c1=O | 25.7 (≈ 64.2 µM)
O=C(O)CC1(CC(=O)Nc2cc3ccccc3cn2)CCCCC1 | 40.7 (≈ 125 µM)
COc1ccc(NC(=O)COC(=O)c2ccc3ccccc3n2)c(OC)c1 | 3 (≈ 8.19 µM)
C1CN(c2nc(N3CCOCC3)nc(N3CCOCC3)n2)CCO1 | 20.6 (≈ 61.2 µM)
COc1ccc(NS(=O)(=O)c2cc(N)ccc2N2CCCC2)cc1 | 47.6 (≈ 137 µM)
S=C(Nc1cccc(Cl)c1)N1CCN(c2ccccn2)CC1 | 0.5 (≈ 1.5 µM)
O=C(NCc1ccccc1Cl)C1CCCO1 (stereo not given) | 32.1 (≈ 134 µM)
CSc1ccccc1C(=O)NCc1ccccc1C | > 40.7
O=C(CCCl)Nc1nc2c(s1)CCc1ccccc1-2 | 7.2 (≈ 24.6 µM)
Cn1ccnc1SCC(=O)NC1CCCC1 | 28.8 (≈ 120 µM)
COc1ccc(C(=O)NCCNC(=O)c2cnccn2)cc1OC | > 49.6
COc1ccc(Nc2nc(NCC3CCCO3)nc(N)c2[N+](=O)[O-])cc1 (stereo not given) | 1.7 (≈ 4.72 µM)
Cc1ccc(NC(=O)C(=O)NCCCN2CCCC2=O)c(C)c1 | > 47.6
O=C(O)c1ccc(C2SCC(=O)N2Cc2ccco2)cc1 (stereo not given) | > 45.5
O=[N+]([O-])c1ccccc1OC/C(=N\O)c1ccccc1 | > 40.8
CC1(C)C(=O)Nc2ccccc2N1C(=O)COC(=O)c1cccs1 | 9.6 (≈ 27.9 µM)
Cc1cc(NS(=O)(=O)c2ccc(NC(=O)/C=C/c3ccccc3)cc2)nc(C)n1 | > 61.3

SMILES | solubility kinetic [µg/mL]
CCC(C)NC(=O)c1ccc2nc(Cc3ccc(OC)cc3)oc2c1 (stereo not given) | 4.7 (≈ 13.9 µM)
Cc1ccc(S(=O)(=O)Nc2c(C)nn(C)c2C)cc1C | > 44
C/C(=N\n1c(C)nc2ccccc2c1=O)c1ccc(N)cc1 | > 43.9
CCOc1ccccc1NC(=O)Cc1cccs1 | 33.6 (≈ 129 µM)
COc1cc(NC(=O)Nc2cccc3cccnc23)cc(OC)c1OC | 0.4 (≈ 1.13 µM)
NC(=S)Cc1ccccc1Cl | 25.2 (≈ 136 µM)
CCn1ccc(-c2ccccc2)c(C#N)c1=O | > 33.6
O=C(c1ccccc1Oc1ccc([N+](=O)[O-])cc1)N1CCOCC1 | > 49.2
CCc1ccc2nc(Nc3ncc(C(C)=O)c(C)n3)nc(C)c2c1 | 6.9 (≈ 21.5 µM)
Cc1ccccc1-c1nc(S(=O)(=O)c2ccccc2)c(N2CCCC2)o1 | 10.1 (≈ 27.4 µM)
O=[N+]([O-])c1cccc(S(=O)(=O)/N=C(/Nc2ccccc2)c2ccccc2)c1 | 1.8 (≈ 4.72 µM)
O=C(CCCO)NNc1c2ccccc2nc2ccccc12 | > 44.3
S=C(NCc1ccncc1)Nc1ccc(Br)cc1Cl | 40.9 (≈ 115 µM)
CCc1cc2cc(C)cc(C)c2[nH]c1=S | 3.9 (≈ 17.9 µM)
FC(F)(F)c1cc(Nc2ccccc2)nc(-c2ccccn2)n1 | 2.9 (≈ 9.17 µM)
N#CCC(=O)Nc1ccc(C(F)(F)F)cc1N1CCOCC1 | 38.3 (≈ 122 µM)
CC(=O)c1cc2c(cc1NC(=O)C1CN(C(C)=O)c3ccccc3O1)OCO2 (stereo not given) | 6.3 (≈ 16.5 µM)
CC12C(=O)N(c3ccccc3)C(=O)C1C(c1ccccc1)N1CCCN12 (stereo not given) | > 52.1
O=[N+]([O-])c1ccc(S(=O)(=O)c2cccc(C(F)(F)F)c2)nc1 | 4.4 (≈ 13.2 µM)
COc1ccc(C(=O)CSc2nccn2C)cc1 | 35.1 (≈ 134 µM)
